In patent EP0411495A2, “Ergoline derivatives of proline and related compounds having dopaminergic activity” (priority 1989, dated 1991):
Where two headings read alike, the source gives them in different places.

What was measured:
[1] = system: isolated rat uterus
Source text: All the compounds of the invention have a marked antiserotonin activity in the in vitro test on isolated rat uterus.

[2] = system: rat; assay: Stereotypy test in the rat; assay type: in vivo; details: for activity on C.N.S.: result in words; for Mean score: stereotypy, rat
[3] = system: spontaneously hypertensive rats (SHR); assay: Antihypertensive activity on spontaneously hypertensive rats (SHR); assay type: in vivo, rat; details: for Mean arterial pressure % reduction: SHR; for hypotensive activity: result in words
[4] = system: mouse; assay: Locomotor activity in the mouse; assay type: in vivo
[5] = system: rat seminal vesicle; assay: Adrenolytic activity, in vitro rat seminal vesicle test
Source text: Most of the compounds of formula (I) have a marked adrenolytic activity in the in vitro rat seminal vesicle test.

[6] = system: reserpinized rat; assay: Antihyperprolactinemic activity in the reserpinized rat; assay type: in vivo; details: for Plasmatic prolactin % reduction: reserpinized rat; for antihyperprolactinemic activity: result in words
Source text: All compounds (I) have a marked antihyperprolactinemic activity in the reserpinized rat.

[7] = system: guinea pig platelet; assay: In vitro guinea pig platelet aggregation induced by ADP; assay type: cell-based; details: guinea pig platelets
Source text: Moreover, compounds (I) have an effective antiag gregating activity on the in vitro guinea pig platelet aggregation induced by ADP.

[8] = system: mouse; assay: Acute toxicity by the oral route in the mouse; assay type: in vivo
[9] = antiserotonin activity, in vitro isolated rat uterus
[10] = After 1 hour (dose 0.25 mg/kg os)
[11] = After 2 hours (dose 0.50 mg/kg os)

| Structure (SMILES) | Mean arterial pressure % reduction ([3]; dose = 1 mg/kg i.p.) [%] | Mean arterial pressure % reduction ([3]; dose = 3 mg/kg i.p.) [%] | ED₅₀ [5] [µg/mL] | ED₅₀ [1, 9] [µg/mL] | antiserotonin activity ([1]; result in words) | Plasmatic prolactin % reduction [6, 10] [%] | other results |
| --- | --- | --- | --- | --- | --- | --- | --- |
| COC(=O)[C@@H]1CCCN1C(=O)[C@@H]1C=C2c3cccc4[nH]cc(c34)C[C@H]2N(C)C1.O=C(O)/C=C\C(=O)O [P 1409, N-(D-Lysergyl)-L-proline methyl ester maleate] | 22.1 | 27.5 | 1.02 |  |  |  | ED₅₀ [1]: 0.010 µg/mL; antiserotonin activity [1]: remarkable antiserotonin activity; activity on C.N.S. [2]: marked activity on C.N.S.; Mean score ([2]; dose 1.25 mg/kg i.p.): 1.00; hypotensive activity [3]: high hypotensive activity; % inhibition ([4]; dose 2.5 mg/kg i.p.): 69.5% |
| CN1C[C@H](C(=O)N2CCC[C@H]2CO)C=C2c3cccc4[nH]cc(c34)C[C@H]21.O=C(O)/C=C\C(=O)O [P 1410] | 17.8 |  |  | 0.059 | remarkable antiserotonin activity | 65.7 | activity on C.N.S. [2]: marked activity on C.N.S.; Mean score ([2]; dose 10 mg/kg i.p.): 2.62; hypotensive activity [3]: high hypotensive activity; antihyperprolactinemic activity [6]: interesting antihyperprolactinemic activity |
| COC(=O)[C@@H]1C[C@@H](O)CN1C(=O)[C@@H]1C=C2c3cccc4[nH]cc(c34)C[C@H]2N(C)C1.O=C(O)/C=C\C(=O)O [P 1413, N-(D-Lysergyl)-4-hydroxy-L-proline methyl ester maleate] |  |  |  |  |  |  | ED₅₀ [1]: 0.004 µg/mL; antiserotonin activity [1]: remarkable antiserotonin activity |
| CN1CC(C(=O)N2CC(O)CC2CO)CC2c3cccc4[nH]cc(c34)CC21 (stereo not shown) [P 1422] | 18.8 | 40.8 | 2.89 | 0.014 | remarkable antiserotonin activity | 77.1 | hypotensive activity [3]: high hypotensive activity; antihyperprolactinemic activity [6]: interesting antihyperprolactinemic activity; % inhibition ([4]; dose 20 mg/kg i.p.): 79.8% |
| CN1C[C@H](C(=O)N2CC(O)C[C@H]2CO)C=C2c3cccc4[nH]c(Br)c(c34)C[C@H]21 (stereo partly shown) [P 1415] |  |  | 0.95 | 0.015 | remarkable antiserotonin activity |  |  |
| CC(C)C[C@H]1C(=O)N2CCC[C@H]2[C@]2(O)O[C@](NC(=O)[C@@H]3C=C4c5cccc6[nH]c(Br)c(c56)C[C@H]4N(C)C3)(C(C)C)C(=O)N12 [α-Bromocryptine, reference compound] |  |  |  | 0.470 |  | 78.2 | Mean score ([2]; dose 10 mg/kg i.p.): 2.25; Platelet aggregation % reduction ([7]; Dose 80 mcg/ml): 25%; Plasmatic prolactin % reduction [6, 11]: 80.9%; % inhibition ([4]; dose 10 mg/kg i.p.): 78.7% |
| CN1C[C@H](C(=O)N2C[C@H](O)C[C@H]2CO)C=C2c3cccc4[nH]cc(c34)C[C@H]21 [P 1414, N-(D-Lysergyl)-4-hydroxy-L-prolinol] | 17.9 | 31.2 |  | 0.007 |  |  | hypotensive activity [3]: high hypotensive activity |
| CN1C[C@H](C(=O)N2CCC[C@H]2C#N)C=C2c3cccc4[nH]cc(c34)C[C@H]21.Cl [P 1419] |  |  | 0.22 | 0.073 |  | 68.4 | acute toxicity [8]: slightly more toxic; activity on C.N.S. [2]: marked activity on C.N.S.; Mean score ([2]; dose 0.625 mg/kg i.p.): 2.50; Plasmatic prolactin % reduction [6, 11]: 84.1%; antihyperprolactinemic activity [6]: interesting antihyperprolactinemic activity; % inhibition ([4]; dose 0.625 mg/kg i.p.): 63.2% |
| CC(C)C[C@H]1C(=O)N2CCC[C@H]2[C@]2(O)O[C@](NC(=O)[C@@H]3C[C@@H]4c5cccc6[nH]cc(c56)C[C@H]4N(C)C3)(C(C)C)C(=O)N12 [Dihydro-α-ergocryptine, reference compound] | 18.3 | 29.0 |  | 0.035 |  | 52.4 | Platelet aggregation % reduction ([7]; Dose 20 mcg/ml): 25%; Plasmatic prolactin % reduction [6, 11]: 66.1%; % inhibition ([4]; dose 20 mg/kg i.p.): 74.3% |
| CN1C[C@H](C(=O)N2CCC[C@H]2C(=O)O)C=C2c3cccc4[nH]cc(c34)C[C@H]21 [P 1411] |  |  |  | 0.370 |  |  | % inhibition ([4]; dose 20 mg/kg i.p.): 80.9% |
| CC[C@@H](CO)NC(=O)[C@@H]1C=C2c3cccc4[nH]cc(c34)C[C@H]2N(C)C1 [Methylergometrine, reference compound] | 15.7 | 29.4 |  |  |  |  |  |
| CC[C@@H](CO)NC(=O)[C@@H]1C=C2c3cccc4c3c(cn4C)C[C@H]2N(C)C1 [Methysergid, reference compound] |  |  | 2.48 |  |  |  |  |
| CN1C[C@H](C(=O)N2CC(O)C[C@H]2CO)C=C2c3cccc4c3c(cn4C)C[C@H]21.Cl (stereo partly shown) [P 1417] |  |  | 3.52 | 0.001 | remarkable antiserotonin activity |  |  |
| CN1C[C@H](C(=O)N2CCC[C@H]2C#N)C=C2c3cccc4c3c(cn4C)C[C@H]21.Cl [P 1420] |  |  | 0.50 | 0.003 | remarkable antiserotonin activity | 50.1 | acute toxicity [8]: slightly more toxic; activity on C.N.S. [2]: marked activity on C.N.S.; Mean score ([2]; dose 2.5 mg/kg i.p.): 2.17; antihyperprolactinemic activity [6]: interesting antihyperprolactinemic activity; % inhibition ([4]; dose 5 mg/kg i.p.): 82.7% |
| CN1C[C@H](CN2CCC[C@H]2CO)C=C2c3cccc4[nH]cc(c34)C[C@H]21.Cl.Cl [P 1421] |  |  | 2.82 | 0.011 | remarkable antiserotonin activity |  | Platelet aggregation % reduction ([7]; Dose 40 mcg/ml): 25% |
| CC(C)[C@@]1(NC(=O)[C@@H]2C[C@@H]3c4cccc5[nH]cc(c45)C[C@H]3N(C)C2)O[C@@]2(O)[C@@H]3CCCN3C(=O)[C@H](Cc3ccccc3)N2C1=O [Dihydroergocristine, reference compound] | 18.1 | 32.0 |  | 0.007 |  | 47.4 | Mean score ([2]; dose 10 mg/kg i.p.): 2.37; Platelet aggregation % reduction ([7]; Dose 40 mcg/ml): 25%; % inhibition ([4]; dose 10 mg/kg i.p.): 47.7% |
